From patent US10125116B2, “Compounds and methods for treating mammalian gastrointestinal microbial infections” (Brandeis University, priority 2009, dated 2018)
Where two headings read alike, the source gives them in different places.

Key:
T. gondii-CpIMPDH = T. gondii-CpIMPDH fluorescence growth assay; format: cell-based, Toxoplasma gondii
[1] = target: T1, recombinant C. parvum IMPDH (Cryptosporidium parvum, UniProt Q8T6T2); experiment: C. parvum IMPDH inhibition (NADH production); format: biochemical
T1 construct: made in house; host or cells: bacteria (guaB strains of E. coli)
T1 sequence (Q8T6T2 1-400): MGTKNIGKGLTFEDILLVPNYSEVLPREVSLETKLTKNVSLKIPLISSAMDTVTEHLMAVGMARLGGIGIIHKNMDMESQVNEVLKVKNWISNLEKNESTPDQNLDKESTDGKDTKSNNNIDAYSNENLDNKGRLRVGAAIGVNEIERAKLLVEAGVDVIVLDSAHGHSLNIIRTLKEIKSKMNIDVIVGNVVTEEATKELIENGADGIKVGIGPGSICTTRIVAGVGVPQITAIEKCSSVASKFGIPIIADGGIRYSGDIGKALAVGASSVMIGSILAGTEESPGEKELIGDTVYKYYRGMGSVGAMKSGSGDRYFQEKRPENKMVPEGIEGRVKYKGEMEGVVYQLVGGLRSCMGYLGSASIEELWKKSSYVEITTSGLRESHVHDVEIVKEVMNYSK
Procedure: Recombinant C. parvum IMPDH was expressed in bacteria and purified as described previously [N. N. Umejiego et al., J Biol Chem 279, 40320-40327 (2004)].
Inhibitors at varying concentrations (25 pM-5 μM) were incubated with 10 nM C. parvum in assay buffer for 10 min at room temperature. The reaction was initiated by the addition of NAD and IMP for final concentrations of 300 μM and 150 μM, respectively. Selectivity was measured against human type II and T. foetus IMPDH at 25° C. in assay buffer. The former was assayed in the presence of 300 μM NAD 40 μM IMP and 160 nM human type II IMPDH, and the latter in the presence of 300 μM NAD 20 μM IMP and 28 nM T. foetus IMPDH. The production of NADH was monitored spectrophotometrically at 340 nm (=6.22 mM^−1 cm^−1) using a Hitachi U-2000 spectrophotometer.
IC50 values were calculated for each inhibitor according to the following equation: υi=υo/(1+[I]/IC50), using the SigmaPlot program (SPSS, Inc.).
The CpIMPDH inhibitory activity of the compounds was assessed by monitoring the production of NADH by fluorescence (FIG. 55). […]
Evaluation of Cp-IMPDH inhibitory activity for the various prepared compounds was conducted utilizing an assay measuring the conversion of IMP to XMP by monitoring the production of NADH by fluorescence emission in the presence of varying inhibitor concentrations. […]

C. parvum [2] = experiment: high content imaging C. parvum growth assay; format: cell-based, Cryptosporidium parvum
Text: FIG. 58 depicts an overview and validation of the high content imaging C. parvum growth assay. A, schematic representation of differential labelling of parasite and host. B, detail of an exemplary micrograph obtained through the screening routine. Numbers indicate object identifies after segmentation analysis. […] For panel D, the ratio of the number of FITC-VVL labelled C. parvum parasites to DAPI labelled HCT-8 host cell nuclei was used to standardize each well and percent C. parvum growth (solid line) was normalized to parasites receiving DMSO alone. […] Paromomycin in addition to reducing parasite number also reduces the average size of the parasite (dashed line). The mean parasite area was measured per well for each treatment in triplicate. The percent area was then calculated by normalizing to the mean area of parasites receiving DMSO alone.
A direct and efficient assay of Cryptosporidium proliferation was also needed. Fluorescent Vicia villosa lectin (VVL) has been used previously to score C. parvum growth by fluorescence microscopy. VVL binds with high specificity to the C. parvum parasite, labelling sporozoites, intracellular stages, the inner oocyst wall, but not the outer oocyst wall. To accommodate the increasing number of compounds entering the SAR pipeline, we adapted the FITC-VVL immunofluorescence assay to a 96-well plate format and developed an automated imaging and analysis pipeline. […] Plates are fixed, permeabilized and stained with FITC-VVL and DAPI to numerate parasites and host cells, respectively. Using a spinning disc microscope, we imaged a […] of each well, providing a robust sample typically consisting of ˜6000 host cells and ˜2000 parasite stages. The instrument is programmed to automatically move from well to well, focus and acquire […] deep image stacks for the entire plate. A series of automated image compression, manipulation, and object-finding algorithms was optimized for the recognition of host cells and parasites using the DAPI and FITC channels. […]

HCT-8 cells = experiment: fluorescent HCT-8 host cell growth assay; format: cell-based, human
Text: The differentiation of selective antiparasitic effects from those that are a secondary consequence of a host cell effect is a critical issue in drug discovery for intracellular parasites. Cytotoxicity assays commonly reflect plasma membrane integrity, and are a crude measure of host cell effects—it is conceivable that more subtle perturbations of host cell metabolism can have an adverse effect on parasite proliferation. Therefore we sought to develop a simple and inexpensive assay of host cell growth. The human ileocecal adenocarcinoma epithelial cell line, HCT-8, which is commonly used to maintain C. parvum infection in tissue culture, was engineered to constitutively express a green fluorescent protein (GFP). Growth of this cell line was monitored daily using a fluorescent plate reader. […] These experiments validate the use of the fluorescent HCT-8 cell growth assay.
HCT-8 cells were transfected with the pmaxGFP plasmid (Amaxa) using Lipofectamine (Invitrogen) following the manufactures instruction. Fluorescent lines were then selected and cloned using FACS. Confluent monolayers of pmaxGFP expressing cells were harvested from T75 flasks and passed through a 40 μm cell strainer. Cells were then seeded at 4000 cells per well in a volume of 200 μL into black, optical quality, thin bottom, 96-well plates (DB Falcon). All test compounds were diluted in DMSO to prepare a 200× working stock for each dilution. Appropriate wells were spiked with 1 μl such that the final concentration of DMSO was 0.5%. The fluorescence was read daily with a SpectraMax M22/M2e (Molecular Devices) plate reader (Ex 485, Em 530) for 6-7 days. The percent inhibition was calculated on a day within the exponential phase of growth.

C. parvum [3] = details: read-out: reported EC50 C. parvum growth (previous studies); cited from earlier work

| SMILES | selective block of T. gondii-CpIMPDH growth, in words (T. gondii-CpIMPDH) | CpIMPDH inhibition, result in words [1] | mean parasite area, in words (C. parvum [2]) | EC50 (C. parvum [2]; Cryptosporidium parvum, in HCT-8 host cells) [µM] | reduction in parasite number (C. parvum [2]; very high concentrations) [%] | host cell (HCT-8) growth effect, in words (HCT-8 cells) | EC50 (C. parvum [3]) [µM] |
| --- | --- | --- | --- | --- | --- | --- | --- |
| O=C(Nc1ccc(Cl)cc1)C(Oc1cccc2ccccc12)c1ccccc1 (stereo not shown) [A66] | none of these compounds selectively blocked the growth | do not inhibit CpIMPDH in vitro |  |  |  |  |  |
| NC[C@@H]1O[C@H](O[C@H]2[C@@H](O)[C@H](O[C@@H]3[C@@H](O)[C@H](N)C[C@H](N)[C@H]3O[C@H]3O[C@H](CO)[C@@H](O)[C@H](O)[C@H]3N)O[C@@H]2CO)[C@H](N)[C@@H](O)[C@@H]1O [paromomycin] |  |  | significantly reduce the mean parasite area in a dose responsive manner | 97 | ~70 | negligible effects on the growth of these cells | 65 to 130 |
